From ChEMBL document CHEMBL5236643, “Discovery and characterization of orally bioavailable 4-chloro-6-fluoroisophthalamides as covalent PPARG inverse-agonists” (Bioorg Med Chem, 2023)
Converted amounts (≈) assume the structure as drawn. The source made the active and inactive calls. No cut-off for these calls is given here.

Experiments:
[1] = Antiproliferative activity against human UM-UC-9 assessed as inhibition of cell proliferation measured after 7 days by IncuCyte live-cell imaging assay; settings: UM-UC-9, 168 h
[2] = Antiproliferative activity against human UM-UC-9 assessed as inhibition of cell proliferation by measuring maximum efficacy after 7 days by IncuCyte live-cell imaging assay; type: functional; settings: UM-UC-9, 168 h, time 7 day
[3] = Microsomal stability in human liver microsomes assessed as intrinsic clearance at 1 uM measured upto 60 mins in presence of NADPH by HPLC-MS/MS analysis; type: ADME, Microsome; settings: read-out: CLH (converted)
[4] = Stability in rat hepatocytes assessed as intrinsic clearance at 1 uM incubated for 1 hr by HPLC-MS/MS analysis; type: ADME, cell-based, Hepatocyte; settings: read-out: CLH (converted)
[5] = Stability of compound in GSH at pH 7.4 assessed as parent compound remaining at 10 mM and measured after 1 hrs by HPLC-UV analysis; type: physicochemical; settings: GSH solution, read-out: Stability
[6] = Stability of compound in GSH at pH 7.4 assessed as parent compound remaining at 10 mM and measured after 2 hrs by HPLC-UV analysis; type: physicochemical; settings: GSH solution, read-out: Stability
[7] = Stability of compound in GSH at pH 7.4 assessed as parent compound remaining at 10 mM and measured after 4 hrs by HPLC-UV analysis; type: physicochemical; settings: GSH solution, read-out: Stability
[8] = Stability of compound in GSH at pH 7.4 assessed as parent compound remaining at 10 mM and measured after 24 hrs by HPLC-UV analysis; type: physicochemical; settings: GSH solution, read-out: Stability
[9] = Stability of compound in cysteine at pH 7.4 assessed as parent compound remaining at 10 mM and measured after 1 hrs by HPLC-UV analysis; type: physicochemical; settings: cysteine solution, read-out: Stability
[10] = Stability of compound in cysteine at pH 7.4 assessed as parent compound remaining at 10 mM and measured after 2 hrs by HPLC-UV analysis; type: physicochemical; settings: cysteine solution, read-out: Stability
[11] = Stability of compound in cysteine at pH 7.4 assessed as parent compound remaining at 10 mM and measured after 4 hrs by HPLC-UV analysis; type: physicochemical; settings: cysteine solution, read-out: Stability
[12] = Stability of compound in cysteine at pH 7.4 assessed as parent compound remaining at 10 mM and measured after 24 hrs by HPLC-UV analysis; type: physicochemical; settings: cysteine solution, read-out: Stability
[13] = Apparent permeability across basolateral to apical side in human Caco-2 cells at 2 uM incubated for 2 hrs by LC-MS/MS analysis; type: ADME, cell-based
[14] = Thermodynamic solubility of compound at pH 6.5 PBS buffer; type: physicochemical; settings: read-out: Therm_solubility
[15] = biological target: T1, Nuclear receptor subfamily 1 group I member 2 (Homo sapiens, UniProt O75469); assay: Transactivation of human PXR in human HepG2 cells co-expressing luciferase gene under control of CYP3A4 promoter assessed as increase in luciferase activity incubated for 24 hrs by luminescence based analysis; type: ADME, cell-based
T1 sequence (O75469 whole entry): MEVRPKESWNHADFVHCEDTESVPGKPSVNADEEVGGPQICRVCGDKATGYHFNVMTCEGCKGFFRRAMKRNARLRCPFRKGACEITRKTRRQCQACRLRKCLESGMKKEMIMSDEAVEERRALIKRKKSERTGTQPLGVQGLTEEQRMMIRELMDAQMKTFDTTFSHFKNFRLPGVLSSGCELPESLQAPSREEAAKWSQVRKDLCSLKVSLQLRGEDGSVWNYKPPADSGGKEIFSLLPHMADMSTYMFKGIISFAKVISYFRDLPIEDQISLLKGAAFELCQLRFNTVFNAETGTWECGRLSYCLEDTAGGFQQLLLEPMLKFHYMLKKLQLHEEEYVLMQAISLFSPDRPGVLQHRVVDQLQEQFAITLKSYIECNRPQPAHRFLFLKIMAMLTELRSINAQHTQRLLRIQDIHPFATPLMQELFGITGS

[16] = AUClast in Wistar rat at 1 mg/kg,iv measured upto 24 hrs by HPLC-MS/MS analysis; type: ADME, organism-based; design: time < 24 hrs, dose 1 mg/kg, route iv; settings: in vivo
[17] = Clearance in Wistar rat at 1 mg/kg,iv measured upto 24 hrs by HPLC-MS/MS analysis; type: ADME, organism-based; settings: in vivo
[18] = Volume of distribution at steady state in Wistar rat at 1 mg/kg,iv measured upto 24 hrs by HPLC-MS/MS analysis; type: ADME, organism-based; settings: in vivo, read-out: Vdss
[19] = Half life in Wistar rat at 1 mg/kg,iv measured upto 24 hrs by HPLC-MS/MS analysis; type: ADME, organism-based; settings: in vivo
[20] = AUClast in NMRI-nu/nu mouse at 100 mg/kg,po measured upto 24 hrs by HPLC-MS/MS analysis; type: ADME, organism-based; design: time < 24 hrs, dose 100 mg/kg, route po; settings: in vivo
[21] = Cmax in NMRI-nu/nu mouse at 100 mg/kg,po measured upto 24 hrs by HPLC-MS/MS analysis; type: ADME, organism-based; design: time < 24 hrs, dose 100 mg/kg, route po; settings: in vivo
[22] = Tmax in NMRI-nu/nu mouse at 100 mg/kg,po measured upto 24 hrs by HPLC-MS/MS analysis; type: ADME, organism-based; settings: in vivo
[23] = biological target: T2, Peroxisome proliferator-activated receptor gamma (Mus musculus) (UniProt P37238); assay: Inverse agonist activity at PPARgamma in NMRI-nu/nu mouse assessed as reduction in Fabp4 mRNA expression in adipose tissue at 100 mg/kg for 3 days and measured 6 hrs last dose by qPCR analysis; type: organism-based; settings: time 3.0 day
T2 sequence (whole entry): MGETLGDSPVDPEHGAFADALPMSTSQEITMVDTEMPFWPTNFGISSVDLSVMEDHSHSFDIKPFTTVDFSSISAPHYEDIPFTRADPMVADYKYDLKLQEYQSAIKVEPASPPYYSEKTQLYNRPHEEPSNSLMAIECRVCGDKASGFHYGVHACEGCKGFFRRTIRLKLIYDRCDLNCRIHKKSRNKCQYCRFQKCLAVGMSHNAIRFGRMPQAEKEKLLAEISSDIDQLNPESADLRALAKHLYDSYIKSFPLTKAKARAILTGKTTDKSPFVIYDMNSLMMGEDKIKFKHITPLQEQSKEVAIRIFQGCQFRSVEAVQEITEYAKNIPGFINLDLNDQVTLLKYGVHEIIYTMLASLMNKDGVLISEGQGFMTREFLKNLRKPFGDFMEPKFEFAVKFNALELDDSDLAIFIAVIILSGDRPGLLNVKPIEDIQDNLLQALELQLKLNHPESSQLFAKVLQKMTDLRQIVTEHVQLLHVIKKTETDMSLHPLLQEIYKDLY

[24] = biological target: T2, Peroxisome proliferator-activated receptor gamma (Mus musculus); assay: Inverse agonist activity at PPARgamma in NMRI-nu/nu mouse assessed as decrease in Acaab1 mRNA expression in adipose tissue at 100 mg/kg for 3 days and measured upto 15 hrs last dose by qPCR analysis; type: organism-based; settings: filed as inverse agonist, time 3.0 day
[25] = AUClast in Wistar rat at 0.3 mg/kg,iv measured upto 24 hrs by HPLC-MS/MS analysis; type: ADME, organism-based; design: dose 0.3 mg/kg, time < 24 hrs, route iv; settings: in vivo
[26] = Clearance in Wistar rat at 0.3 mg/kg,iv measured upto 24 hrs by HPLC-MS/MS analysis; type: ADME, organism-based; settings: in vivo
[27] = Volume of distribution at steady state in Wistar rat at 0.3 mg/kg,iv measured upto 24 hrs by HPLC-MS/MS analysis; type: ADME, organism-based; settings: in vivo, read-out: Vdss
[28] = Half life in Wistar rat at 0.3 mg/kg,iv measured upto 24 hrs by HPLC-MS/MS analysis; type: ADME, organism-based; settings: in vivo
[29] = biological target: T2, Peroxisome proliferator-activated receptor gamma (Mus musculus); assay: Inverse agonist activity at PPARgamma in NMRI-nu/nu mouse assessed as reduction in Fabp4 mRNA expression in adipose tissue at 50 mg/kg for 3 days and measured 6 hrs last dose by qPCR analysis; type: organism-based; settings: time 3.0 day
[30] = biological target: T2, Peroxisome proliferator-activated receptor gamma (Mus musculus); assay: Inverse agonist activity at PPARgamma in NMRI-nu/nu mouse assessed as fold reduction in Fabp4 mRNA expression in adipose tissue at 50 mg/kg for 3 days and measured 15 hrs last dose by qPCR analysis; type: organism-based; settings: filed as inverse agonist, time 3.0 day
[31] = biological target: T2, Peroxisome proliferator-activated receptor gamma (Mus musculus); assay: Inverse agonist activity at PPARgamma in NMRI-nu/nu mouse assessed as decrease in Acaab1 mRNA expression in adipose tissue at 50 mg/kg for 3 days and measured upto 15 hrs last dose by qPCR analysis; type: organism-based; settings: filed as inverse agonist, time 3.0 day

Row | SMILES | IC50 [1] [nM] | Emax [2] [%] | CLint scaled at 1 µM [3] [mL/min/kg] | CLint scaled at 1 µM [4] [mL/min/kg] | remaining at 1 h, 10000 µM [5] [%] | remaining at 2 h, 10000 µM [6] [%] | remaining at 4 h, 10000 µM [7] [%] | remaining at 24 h, 10000 µM [8] [%] | remaining at 1 h, 10000 µM [9] [%] | remaining at 2 h, 10000 µM [10] [%] | remaining at 4 h, 10000 µM [11] [%] | remaining at 24 h, 10000 µM [12] [%] | Papp B→A at 2 h, 2 µM [13] [×10⁻⁶ cm/s] | solubility thermodynamic [14] [µg/mL] | IC50 [15] [nM] | AUC(0-t) at 24 h [20] [ng·h/mL] | Cmax [21] [nM] | Tmax [22] [h] | Activity [23] | further results
1 | CC(C)(O)c1ccc(NC(=O)c2cc(C(=O)NCc3ccc(F)c(F)c3)c(F)cc2Cl)cc1 | 40.4 | 71 | 15.5 | 29.3 | 100 | 100 | 100 | 100 | 100 | 100 | 100 | 100 | 17.1 | 6.55 (≈ 13.7 µM) | > 49800 | 1900 | 3.2 | 1 | inactive | AUClast [16]: 0.18 kg·h/L; clearance [17]: 93.3 mL/min/kg; Vd [18]: 1.8 L/kg; half-life [19]: 0.19 h; Activity [24]: Active
2 | Cc1cc(OC(F)F)ccc1NC(=O)c1cc(C(=O)NCc2ccc(F)cc2)c(F)cc1Cl | 19.4 | 55 | 12.7 | 28.8 | 74.8 | 56.4 | 46.5 | 32 | 93 | 77.8 | 71 | 51.6 | 23.8 | 0.1 (≈ 0.208 µM) | 14700 | 12000 | 2100 | 7 | inactive | AUClast [25]: 1.6 kg·h/L; clearance [26]: 10.3 mL/min/kg; Vd [27]: 2.7 L/kg; half-life [28]: 4.8 h; Activity [29]: inactive; Activity [30]: Active; Activity [31]: Active
